Data published in patent US9278958B2, “Anti-cancer compounds” (KATHOLIEKE UNIVERSITEIT LEUVEN, priority 2012, dated 2016).
Where two headings read alike, the source gives them in different places.

Tests used:
CEM cells = test: Cytostatic assay, CEM; type: cell-based; conditions: Homo sapiens, CCRF-CEM
Procedure, shortened: (§1)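 Cells (5-7.5×10^4/well) + test compound; growth 48–96 h (line-dependent), 37° C, humidified CO2 atmosphere; endpoint Coulter count.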

Molt4/C8 cells = test: Cytostatic assay, Molt4/C8; type: cell-based; conditions: Table 2
Procedure, shortened: as §1

Sup T1 cells = test: Cytostatic assay, Sup T1; type: cell-based; conditions: Homo sapiens, Table 2, read-out: Cytostatic activity (μM) Sup T 1
Procedure, shortened: as §1

MT-2 cells = test: Cytostatic assay, MT-2; type: cell-based; conditions: Homo sapiens, MT2; Table 2
Procedure, shortened: as §1

C8166 cells = test: Cytostatic assay, C8166; type: cell-based; conditions: Homo sapiens, Table 2
Procedure, shortened: as §1

HUT-78 cells = test: Cytostatic assay, HUT-78; type: cell-based; conditions: Homo sapiens, HuT78; Table 2
Procedure, shortened: as §1

MT-4 cells = test: Cytostatic assay, MT-4; type: cell-based; conditions: Homo sapiens, MT4; Table 2
Procedure, shortened: as §1

[1] = test system: HL60, human leukemia cells; test: Cytostatic assay, HL-60; type: cell-based; conditions: Table 2
Procedure, shortened: as §1

[2] = test system: U937, human monocytic cells; test: Cytostatic assay, U937; type: cell-based; conditions: U-937, Table 2
Procedure, shortened: as §1

[3] = test system: THP-1, human monocytic cells; test: Cytostatic assay, THP-1; type: cell-based; conditions: Table 2
Procedure, shortened: as §1

[4] = test system: Raji, human B-lymphoma cells; test: Cytostatic assay, Raji; type: cell-based; conditions: Table 2
Procedure, shortened: as §1

L1210 cells = test: Cytostatic assay, L1210; type: cell-based; conditions: Mus musculus, Table 2
Procedure, shortened: as §1

[5] = test system: MCF-7 mammary carcinoma cells; test: Cytostatic assay, MCF-7; type: cell-based; conditions: Homo sapiens, MCF7; Table 3
Procedure, shortened: as §1

[6] = test system: FM3A mammary carcinoma cells; test: Cytostatic assay, FM3A; type: cell-based, murine; conditions: Mus musculus, Table 3
Procedure, shortened: as §1

[7] = test system: HeLa cervix carcinoma cells; test: Cytostatic assay, HeLa; type: cell-based, human; conditions: Homo sapiens; Table 3; read-out: Cytostatic activity (μM) Hela
Procedure, shortened: as §1

[8] = test system: Caki-1 kidney carcinoma cells; test: Cytostatic assay, Caki-1; type: cell-based; conditions: Homo sapiens, Table 3
Procedure, shortened: as §1

[9] = test system: Caki-2 kidney carcinoma cells; test: Cytostatic assay, Caki-2; type: cell-based; conditions: Homo sapiens, Table 3
Procedure, shortened: as §1

[10] = test system: 293T embryonic kidney cells; test: Cytostatic assay, 293T; type: cell-based; conditions: Homo sapiens, HEK-293T; Table 3
Procedure, shortened: as §1

[11] = test system: HT29 colorectal carcinoma cells; test: Cytostatic assay, HT29; type: cell-based; conditions: Homo sapiens, HT-29; Table 3
Procedure, shortened: as §1

U87 glioma cells = test: Cytostatic assay, U87; type: cell-based; conditions: Homo sapiens, U-87 MG; Table 3
Procedure, shortened: as §1

[12] = test system: HEL embryonic lung fibroblast cells; test: Cytostatic assay, HEL; type: cell-based; conditions: Homo sapiens, Table 3
Procedure, shortened: as §1

[13] = test system: BAEC aortic endothelial cells; test: Cytostatic assay, BAEC; type: cell-based, bovine; conditions: Bos taurus, Table 3
Procedure, shortened: as §1

[14] = test system: PC3 (rega) prostate cancer cells; test: Cytostatic assay, PC3 (rega); type: cell-based; conditions: Table 4
Procedure, shortened: as §1

BPH-1 (UZ) = test: Cytostatic assay, BPH-1 (UZ); type: cell-based; conditions: Homo sapiens, Table 4
Procedure, shortened: as §1

[15] = test system: DU145 (UZ) prostate cancer cells; test: Cytostatic assay, DU145 (UZ); type: cell-based; conditions: Homo sapiens, DU-145; Table 4
Procedure, shortened: as §1

[16] = test system: PC-3 (UZ) prostate cancer cells; test: Cytostatic assay, PC-3 (UZ); type: cell-based; conditions: Table 4
Procedure, shortened: as §1

[17] = test system: LNCaP (UZ) prostate cancer cells; test: Cytostatic assay, LNCaP (UZ); type: cell-based; conditions: Homo sapiens, Table 4
Procedure, shortened: as §1

[18] = test system: PNT1A (UZ) prostate cells; test: Cytostatic assay, PNT1A (UZ); type: cell-based; conditions: Homo sapiens, Table 4
Procedure, shortened: as §1

[19] = test system: 22Rv1 (UZ) prostate cancer cells; test: Cytostatic assay, 22Rv1 (UZ); type: cell-based; conditions: Homo sapiens, Table 4
Procedure, shortened: as §1

PLC/PRF/5 hepatoma cells = test: Cytostatic assay, PLC/PRF/5; type: cell-based; conditions: Homo sapiens, Table 4
Procedure, shortened: as §1

HepG2C3A hepatoma cells = test: Cytostatic assay, HepG2C3A; type: cell-based; conditions: Homo sapiens, HepG2/C3A; Table 4
Procedure, shortened: as §1

Huh-7 hepatoma cells = test: Cytostatic assay, Huh-7; type: cell-based; conditions: Homo sapiens, Table 4
Procedure, shortened: as §1

[20] = test system: DNA synthesis in CEM cells; test: Antimetabolic activity assay, [CH3-3H]dThd incorporation (DNA synthesis), CEM; type: cell-based; conditions: Homo sapiens, CCRF-CEM, incorporation into TCA-insoluble material
Procedure: (§2) Radiolabeled precursors of DNA synthesis ([^3H-methyl]dThd), RNA synthesis ([5-^3H]Urd), and protein synthesis ([4,5-^3H]leu) were added to 10^5 CEM cell cultures in the 200 μl-wells of a microtiter plate at 1 μCi for each precursor in the presence of varying concentrations of the test compounds (5-fold dilution series). The cells were allowed to proliferate for 20 hrs at 37° C. in a humidified, CO2-controlled atmosphere. At the end of the incubation period, the contents of the wells were brought onto 25-mm glass fiber filters and further processed for measurement of acid-insoluble radioactivity.

[21] = test system: DNA synthesis in Raji cells; test: Antimetabolic activity assay, [CH3-3H]dThd incorporation (DNA synthesis), Raji; type: cell-based; conditions: Homo sapiens, incorporation into TCA-insoluble material
Procedure: [The procedure below names another cell line; the source lists this cell line under the same test.] as §2

[22] = test system: RNA synthesis in CEM cells; test: Antimetabolic activity assay, [5-3H]uridine incorporation (RNA synthesis), CEM; type: cell-based; conditions: Homo sapiens, CCRF-CEM, incorporation into TCA-insoluble material
Procedure: as §2

[23] = test system: RNA synthesis in Raji cells; test: Antimetabolic activity assay, [5-3H]uridine incorporation (RNA synthesis), Raji; type: cell-based; conditions: Homo sapiens, incorporation into TCA-insoluble material
Procedure: [The procedure below names another cell line; the source lists this cell line under the same test.] as §2

[24] = test system: protein synthesis in CEM cells; test: Antimetabolic activity assay, [4,5-3H]leucine incorporation (protein synthesis), CEM; type: cell-based; conditions: Homo sapiens, CCRF-CEM, incorporation into TCA-insoluble material
Procedure: as §2

[25] = test system: protein synthesis in Raji cells; test: Antimetabolic activity assay, [4,5-3H]leucine incorporation (protein synthesis), Raji; type: cell-based; conditions: Homo sapiens, incorporation into TCA-insoluble material
Procedure: [The procedure below names another cell line; the source lists this cell line under the same test.] as §2

[26] = test system: broad variety of tumor cell lines; test: Cytostatic assays, summary over the panel of cell lines (Tables 2-4); type: cell-based
Procedure: (§3) To each well of a 96-well microtiter plate were added 5-7.5×10^4 cells and a given amount of the test compound. The cells were allowed to proliferate for 48 h to 96 h (depending on the nature of the cell line) at 37° C. in a humidified CO2-controlled atmosphere. At the end of the incubation period, the cells were counted in a Coulter Counter (Coulter Electronics Ltd, Harpenden Herts, United Kingdom).

[27] = test system: Daudi, human B-lymphoma cells; test: Cytostatic assay, Daudi; type: cell-based; conditions: Table 2
Procedure: as §3

[28] = test system: HOS CD4+ osteosarcoma cells; test: Cytostatic assay, HOS CD4+; type: cell-based; conditions: Homo sapiens; Table 3
Procedure: as §3

[29] = test system: OST TK- osteosarcoma cells; test: Cytostatic assay, OST TK-; type: cell-based; conditions: Homo sapiens; Table 3
Procedure, shortened: as §1

[30] = test system: U87 CD4+/CXCR4+/CCR5+ glioma cells; test: Cytostatic assay, U87 CD4+/CXCR4+/CCR5+; type: cell-based; conditions: Homo sapiens, Glioma cell; Table 3
Procedure: as §3

[31] = Table 1a, read-out: IC50 μM (CEM)
[32] = Table 2, read-out: Cytostatic activity (μM) CEM

COc1ccc(OC)c(CCc2cc(C#N)c(N)s2)c1 [TR589, 2-Amino-5-[2-(2,5-dimethoxy-phenyl)-ethyl]-thiophene-3-carbonitrile]
IC50 (CEM cells; [31]): 0.015 µM | IC50 (CEM cells; [32]): 0.015 µM | IC50 (Molt4/C8 cells): 0.058 ± 0.056 µM | IC50 (Sup T1 cells): 0.017 ± 0.012 µM | IC50 (MT-2 cells): 0.027 ± 0.001 µM | IC50 (C8166 cells): 0.021 ± 0.009 µM | IC50 (HUT-78 cells): 0.062 ± 0.039 µM | IC50 (MT-4 cells): 0.086 ± 0.048 µM | IC50 [1]: 0.024 ± 0.004 µM | IC50 [2]: 0.036 ± 0.001 µM | IC50 [3]: 0.022 ± 0.003 µM | IC50 [4]: 0.063 ± 0.013 µM | IC50 (L1210 cells): 0.064 ± 0.025 µM | IC50 [5]: 0.026 ± 0.0014 µM | IC50 [6]: 0.05 ± 0.046 µM | IC50 [7]: 0.13 ± 0.06 µM | IC50 [8]: 0.016 ± 0.001 µM | IC50 [9]: 0.042 ± 0.004 µM | IC50 [10]: < 0.032 µM | IC50 [11]: 0.046 ± 0.012 µM | IC50 (U87 glioma cells): 0.038 ± 0.008 µM | IC50 [12]: < 0.032 µM | IC50 [13]: < 0.032 µM | IC50 [14]: < 0.032 µM | IC50 (BPH-1 (UZ)): < 0.032 µM | IC50 [15]: 0.061 ± 0.016 µM | IC50 [16]: < 0.032 µM | IC50 [17]: < 0.032 µM | IC50 [18]: < 0.032 µM | IC50 [19]: < 0.032 µM | IC50 (PLC/PRF/5 hepatoma cells): 0.041 ± 0.013 µM | IC50 (HepG2C3A hepatoma cells): 0.29 ± 0.18 µM | IC50 (Huh-7 hepatoma cells): < 0.16 µM | IC50 [20]: > 100 µM | IC50 [21]: ≥ 100 µM | IC50 [22]: 44 ± 11 µM | IC50 [23]: 90 ± 14 µM | IC50 [24]: 20 µM | IC50 [25]: 39 ± 36 µM | fold more cytostatic than the corresponding -COOEt-containing compound 16b [26]: 50 fold | IC50 ([26]; range over the cell lines of Tables 2-4, read-out: IC50 range (antiproliferative activity)): 20 to 130 nM

COC(=O)c1cc(CCc2ccccc2OC)sc1N [TR567, 2-Amino-5-[2-(2-methoxy-phenyl)-ethyl]-thiophene-3-carboxylic acid methyl ester]
IC50 (CEM cells; [31]): 1.8 µM | IC50 (CEM cells; [32]): 1.8 ± 0.92 µM | IC50 (Molt4/C8 cells): 0.81 ± 0.49 µM | IC50 (Sup T1 cells): 1.5 µM | IC50 (MT-2 cells): 2.1 ± 0.071 µM | IC50 (C8166 cells): 3 ± 0.21 µM | IC50 (HUT-78 cells): 13 ± 4.2 µM | IC50 (MT-4 cells): 14 ± 2.8 µM | IC50 [1]: 4 ± 3.3 µM | IC50 [2]: 10 ± 0.85 µM | IC50 [3]: 13 ± 1.4 µM | IC50 [4]: 19 ± 4.2 µM | IC50 [27]: 13 ± 0.71 µM | IC50 [28]: 23 ± 4.2 µM | IC50 [29]: 7.6 ± 2.4 µM | IC50 [5]: 22 ± 3.5 µM | IC50 [6]: 37 ± 0.71 µM | IC50 [7]: 17 ± 2.1 µM | IC50 [8]: 3.7 ± 1.8 µM | IC50 [9]: 4.5 ± 1.9 µM | IC50 [10]: 22 ± 15 µM | IC50 [11]: 17 ± 7.8 µM | IC50 (U87 glioma cells): 38 µM | IC50 [30]: 32 ± 2.1 µM | IC50 [12]: 20 ± 7.8 µM | IC50 [13]: 20 ± 4.2 µM | IC50 [14]: 0.71 ± 0.28 µM | IC50 (BPH-1 (UZ)): 39 ± 2.8 µM | IC50 [15]: 11 ± 7 µM | IC50 [16]: 1.4 ± 0.071 µM | IC50 [17]: 0.43 ± 0.14 µM | IC50 [18]: 17 ± 2.8 µM | IC50 [19]: 5.7 ± 2.8 µM | IC50 (PLC/PRF/5 hepatoma cells): 18 ± 4.2 µM | IC50 (HepG2C3A hepatoma cells): 8.6 ± 0.28 µM | IC50 (Huh-7 hepatoma cells): 3.4 ± 1.2 µM | IC50 [20]: 6.4 ± 4.1 µM | IC50 [21]: 54 ± 8 µM | IC50 [22]: 2.6 ± 0.6 µM | IC50 [23]: 68 ± 8 µM | IC50 [24]: 1.4 ± 0.9 µM | IC50 [25]: 45 ± 8 µM | IC50 ([26]; Homo sapiens, HuT78, range for the seven compounds, MT-4 and HUT-78 cells, read-out: IC50 range, cytostatic activity against MT-4 and HUT-78 cells): 8500 to 60000 nM | IC50 ([26]; range for the seven compounds against the 5 tumor cell lines, read-out: IC50 range, cytostatic activity against CEM, Molt4/C8, Sup T1, MT-2 and C8166 cells): 220 to 3400 nM
